Measurements: US20020172720A1, “Control of pseudomonas aeruginosa” (priority 2001, published 2002)
“And” between values parts separate entries of the source, which are not always exact repeats. Equal values may be shown once.

Test system: Pseudomonas aeruginosa (ATCC 15442) biofilm
Experiment: MBEC (minimum biofilm eradication concentration) test, Calgary Biofilm Device
Format: cell-based
Settings: for MBEC, ppm as Br2, on 7-day old biofilm: one-hour biocide contact time, biofilm grown seven days in nutrient solution, halogen biocides expressed as Br2
Excerpt: The efficacy of this invention in eradicating (i.e. controlling) Pseudomonas aeruginosa biofilm of sufficient age such that it had developed an extracellular polysaccharide protective slime layer, was shown by a series of standard tests performed on our behalf at MBEC Biofilm Technologies, Inc., Calgary, Canada. The test procedure, developed at the University of Calgary, utilizes a device which allows the growth of 96 identical biofilms under carefully controlled conditions. The device consists of a two-part vessel comprised of an upper plate containing 96 pegs that seals against a bottom plate. The bottom plate can consist of either a trough (for biofilm growth) or a standard 96-well plate (for biocide challenge). The biofilms develop on the 96 pegs. The device has been used as a general method for evaluating the efficacy of antibiotics and biocides towards biofilms. See in this connection H. Ceri, et al., “The MBEC Test: A New In Vitro Assay Allowing Rapid Screening for Antibiotic Sensitivity of Biofilm”, Proceedings of the ASM, 1998,89,525; Ceri, et al., “Antifungal and Biocide Susceptibility testing of Candida Biofilms using the MBEC Device”, Proceedings of the Interscience Conference on Antimicrobial Agents and Chemotherapy, 1998, 38, 495; and H. Ceri, et al., “The Calgary Biofilm Device: A New Technology for the Rapid Determination of Antibiotic Susceptibility of Bacterial Biofilms”, Journal of Clinical Microbiology, 1999, 37, 1771-1776.
Six biocide systems were evaluated using the above test procedure and test equipment. Five of these systems were oxidizing biocides, viz., chlorine (from NaOCl), bromine (from NaOCl+NaBr), bromine and chlorine (from BCDMH), bromine (from sulfamate stabilized bromine chloride), and chlorine (from trichloroisocyanuric acid), all expressed as bromine (Br2) in mg/L, so that all test results were placed on the same basis. The sixth biocide was glutaraldehyde, a non-oxidizing biocide.
These biocide systems were used to challenge biofilms of Pseudomonas aeruginosa (ATCC 15442). This is a Gram (−) bacterium which is known to rapidly develop an extracellular polysaccharide slime layer, and is found in industrial and recreational water systems. See in this connection J. W. Costerton and H. Anwar, “Pseudomonas aeruginosa: The Microbe and Pathogen”, in Pseudomonas aeruginosa Infections and Treatment, A. L. Baltch and R. P. Smith editors, Marcel Dekker publishers, New York, 1994.
In the Table the MBEC (minimum biofilm eradication concentration) results presented are for the one-hour biocide contact time used in the test. The Psuedomonas aeurginosa colony was allowed to grow in contact with a nutrient solution for seven days. The values given for the halogen containing biocides are expressed in terms of mg/L of bromine as Br2. The data on the glutaraldehyde is in terms of mg/L as active ingredient. […]

[1] = average of the results, one-hour contact time, 7-day old biofilm, expressed as Br2

| SMILES | MBEC, avg. (average (est.), one-hour contact time, 7-day old biofilm, glutaraldehyde as active ingredient) | MBEC, on 7-day old biofilm (individual results, one-hour contact time, 7-day old biofilm, glutaraldehyde as active ingredient) | MBEC, avg. [1] [ppm as Br2] | MBEC, ppm as Br2, on 7-day old biofilm (individual results) |
| --- | --- | --- | --- | --- |
| O=CCCCC=O [Glutaraldehyde, glutaraldehyde] | ~200 (est.) mg/L as active ingredient | 100 mg/L as active ingredient and > 200 mg/L as active ingredient |  |  |
| O=c1n(Cl)c(=O)n(Cl)c(=O)n1Cl [trichloroisocyanuric acid] |  |  | 20 | 20, 20 ppm as Br2 |
| CC1(C)C(=O)N(Cl)C(=O)N1Br [Bromine and chlorine (from BCDMH), N,N′-bromochloro-5,5-dimethylhydantoin] |  |  | 7.5 | 5 ppm as Br2 and 10 ppm as Br2 |
